From US7250157B2, “Dermatological compositions and methods” (Applied Genetics Incorporated Dermatics, priority 1996, dated 2007)
Several values for one entry are separate records, joined by “and”; a condition that tells them apart may be missing. Equal entries are not always repeated. Where two headings read alike, the source gives them in different places. One block for each compound: values may come before it.

Assays:
[1] = system: Cloudman S91 mouse melanoma cell line; experiment: Melanin content of S91 cells after treatment with test compound; type: cell-based; settings: for melanogenesis in S91 cells (in words): PKC inhibitors
Protocol: The Cloudman S91 mouse melanoma cell line was obtained from American Type Culture Collection (ATCC). […] For testing propylene glycol and analogues for induction of melanogenesis, S91 cells were plated at 10^5 cells/35 mm dish in 10% calf serum. […] Cells were cultured for 6 days at 37° C. in 5% CO2 in a humidified incubator. Following this treatment period, cells were examined microscopically and the portion of dedifferentiated and differentiated cells was estimated.
Following this microscopic examination, cells were detached from dishes by trypsin. The time required for detachment by trypsin was recorded as an additional indicator of the phenotypic effects of test compounds. For each treatment, a subsample of cells was counted to determine the effects of treatment compounds on cellular proliferation. The remainder of cells were used for determination of melanin content. […] Absorbance of standards and samples was measured at 475 nm. Melanin was expressed as pg melanin/cell.

[2] = system: Tyrosinase in normal human epidermal melanocytes (NHEM); experiment: Tyrosinase in NHEM (in situ, cellular, extracellular particulate, media); type: cell-based
Protocol: Tyrosinase was measured in normal human epidermal melanocytes (NHEM) using procedures identical to those described for S91 cells (Example 6), […], 1600×g, or 17,300×g for analysis of tyrosinase activity in the extracellular exported melanosomal particulate fraction, and in the resultant supernatant media fraction. In some cases (Table 11), tyrosinase was also measured by an in situ assay wherein radiolabelled tyrosine was added directly to freshly replaced media of NHEM for a period of 24 hrs following a 5 day treatment period (Abdel-Malek, et al., 1992, J. Cell. Physiol. 150:416-425). […] Both 5 mM 5-NBene-2,2-DM and 25 mM 3,3-M-1,2-BD induced more tyrosinase in each of these assays and fractions than did 1,2-PG. IBMX (3-isobutyl-1-methyl-xanthine) provided as a positive control, induced as much tyrosinase as 5 mM 5-NBene-2,2-DM in the in situ assay, but less in cellular, extracellular particulate and media fractions (Table 11).

[3] = system: tyrosinase activity in S91 mouse melanoma cells; experiment: Induction of tyrosinase activity in S91 cells
Protocol: Compounds were examined for their ability to induce tyrosinase activity in S91 mouse melanoma cells. […] Following treatments, cells were trypsinized, counted by Coulter, pelleted by centrifugation at 1000×g, and analyzed for tyrosinase activity using modifications of previously described procedures (Pomerantz, S. H., 1966, J. Biol. Chem. 241:161-168; Jara, et al., 1988, Pigment Cell Res. 1: 332-339.). Briefly, cell pellets were solubilized by sonicating for 5 seconds in 600 ul 50 mM phosphate buffer pH 6.8 containing 0.5% Triton-X100, followed by vortexing, incubation on ice for 30 min, and then revortexing. From this, 200 ul aliquots were combined with 200 ul of reaction mixture containing either 75 uM tyrosine, 75 uM L-Dopa, and 2 uCi L-[3,5-^3H]Tyrosine in 50 mM NaPO4 pH 6.8 (L-Dopa+), or, 75 uM tyrosine, and 2 uCi L-[3,5-^3H]Tyrosine in 50 mM NaPO4 pH 6.8 (L-Dopa−) and incubated 1 hr at 37° C. Reactions were stopped by addition of 400 ul 10% activated charcoal in 0.1N HCl and incubation on ice for 15 min. This mixture was centrifuged at 17,300×g for 5 min, and 400 ul supernatant was then filtered through a 0.22 uM GV Durapore centifugal filter unit (Millipore) by centrifuging at 17,300×g for 5 min. Filtrate was added to 4 ml Fisher Plus scintillation fluid and counted on a Hewlett Packard scintillation counter. Tyrosinase activity was calculated as dpm/hr/ug protein and dpm/hr/10^3 cells. Each sample was analyzed with and without L-Dopa, a necessary cofactor for tyrosinase (Pomerantz, S. H., 1966, J. Biol. Chem. 241:161-168; McLane, et al., 1987, Biochem. Biophys. Res. Commun. 145:719-725). All reported tyrosinase values are exclusive of counts that occurred in buffer blanks and L-dopa negative aliquots. Protein was determined on aliquots of cell lysate, extracellular particulate lysate or media by the Bradford Coomassie Blue method (Bradford, 1967, Anal. Biochem. 72:248-254) using Bio-Rad Protein Assay Kit I.

[4] = range of concentrations up to a toxic dose
[5] = 5 day treatment, concentrations as E130
[6] = pair of replicates, concentrations as E130
[7] = 300 mM PG-1,2, 25 mM 3,3-M-1,2-BD, 50 mM 1,2-cs-CPD, 5 mM 5-NBene-2,2-DM, 0.5 mM 2,3-Pyd, 0.1 mM IBMX, mean ±SE

Compound: 1-propanol
melanogenesis in S91 cells (≧2-fold increase = significant) [1, 4]: did not induce significant (≧2-fold increase) melanogenesis

Compound: O[C@@H]1CCC[C@H]1O (relative stereo) [1,2-trans-Cyclopentanediol, 1,2-trans-cyclopentanediol]
Concentration Required for ≧2-fold Melanin Induction in S91 Cells [1]: 50000 µM

Compound: OC1CCCC(O)C1 (centres unmarked) [1,3-cyclohexanediol]
melanogenesis in S91 cells (≧2-fold increase = significant) [1, 4]: did not induce significant (≧2-fold increase) melanogenesis

Compound: OC1OCCOC1O (centres unmarked) [1,4-Dioxane-2,3-Diol, 1,4-dioxane-2,3-diol]
Concentration Required for ≧2-fold Melanin Induction in S91 Cells [1]: 500 µM

Compound: OCC1CC2CCC1C2 (centres unmarked) [2-NBaneM, 2-Norbornanemethanol]
Tyrosinase Cellular ([2]; Black-Neonatal-NHEM, 1 mM): 10863 dpm/hr/10^3 cells | Tyrosinase Cellular relative to Control ([2]; Black-Neonatal-NHEM, 1 mM): 1.10 X | Tyrosinase In Situ ([2]; Black-Neonatal-NHEM, 1 mM): 12.1 dpm/hr/10^3 cells | Tyrosinase In Situ relative to Control ([2]; Black-Neonatal-NHEM, 1 mM): 0.97 X | Tyrosinase Media relative to Control ([2]; Black-Neonatal-NHEM, 1 mM): 1.68 X | Tyrosinase Media ([2]; Black-Neonatal-NHEM, 1 mM, media from 1 day treatment period): 18.7 dpm/hr/10^3 cells | Tyrosinase Cellular ([2]; Black-Neonatal-NHEM, 5 mM): 17397 dpm/hr/10^3 cells | Tyrosinase Cellular relative to Control ([2]; Black-Neonatal-NHEM, 5 mM): 1.77 X | Tyrosinase In Situ ([2]; Black-Neonatal-NHEM, 5 mM): 12.8 dpm/hr/10^3 cells | Tyrosinase In Situ relative to Control ([2]; Black-Neonatal-NHEM, 5 mM): 1.02 X | Tyrosinase Media relative to Control ([2]; Black-Neonatal-NHEM, 5 mM): 3.36 X | Tyrosinase Media ([2]; Black-Neonatal-NHEM, 5 mM, media from 1 day treatment period): 37.3 dpm/hr/10^3 cells | Tyrosinase Cellular ([2]; White-Adult-NHEM, 1 mM): 15257 dpm/hr/10^3 cells | Tyrosinase Cellular relative to Control ([2]; White-Adult-NHEM, 1 mM): 1.09 X | Tyrosinase In Situ ([2]; White-Adult-NHEM, 1 mM): 7.05 dpm/hr/10^3 cells | Tyrosinase In Situ relative to Control ([2]; White-Adult-NHEM, 1 mM): 1.27 X | Tyrosinase Media relative to Control ([2]; White-Adult-NHEM, 1 mM): 1.11 X | Tyrosinase Media ([2]; White-Adult-NHEM, 1 mM, media from 1 day treatment period): 29.2 dpm/hr/10^3 cells | Tyrosinase Cellular ([2]; White-Adult-NHEM, 5 mM): 16077 dpm/hr/10^3 cells | Tyrosinase Cellular relative to Control ([2]; White-Adult-NHEM, 5 mM): 1.15 X | Tyrosinase In Situ ([2]; White-Adult-NHEM, 5 mM): 6.18 dpm/hr/10^3 cells | Tyrosinase In Situ relative to Control ([2]; White-Adult-NHEM, 5 mM): 1.11 X | Tyrosinase Media relative to Control ([2]; White-Adult-NHEM, 5 mM): 1.33 X | Tyrosinase Media ([2]; White-Adult-NHEM, 5 mM, media from 1 day treatment period): 48.1 dpm/hr/10^3 cells | induction of tyrosinase in S91 cells compared with 5-NBene-2,2-DM (FIG. 2) [3]: Lesser induction

Compound: O=CC[C@H](O)[C@H](O)CO [2-deoxy-D-ribose]
melanogenesis in S91 cells (≧2-fold increase = significant) [1, 4]: did not induce significant (≧2-fold increase) melanogenesis

Compound: CC(O)(CO)c1ccccc1 (centres unmarked) [2-phenyl-1,2-propanediol]
melanogenesis in S91 cells (≧2-fold increase = significant) [1, 4]: did not induce significant (≧2-fold increase) melanogenesis

Compound: CC(C)O [2-propanol]
melanogenesis in S91 cells (≧2-fold increase = significant) [1, 4]: did not induce significant (≧2-fold increase) melanogenesis

Compound: CCCCCCCCCCCCN1CCCCCC1=O [Azone®]
melanogenesis in S91 cells (≧2-fold increase = significant) [1, 4]: did not induce significant (≧2-fold increase) melanogenesis

Compound: CCCCCCCCCCCCC/C=C/[C@@H](O)[C@@H](N)CO [D-sphingosine, reference compound]
effect on melanogenesis induced by propylene glycol in S91 cells [1]: enhanced melanogenesis induced by propylene glycol | melanogenesis in S91 cells (in words) [1]: induced melanogenesis

Compound: CC1CNCCN1S(=O)(=O)c1cccc2cnccc12 (centres unmarked) [H7, 1-[5-isoquinolinyl-sulfonyl]-2-methyl-piperazine, reference compound]
effect on melanogenesis induced by propylene glycol in S91 cells [1]: enhanced melanogenesis induced by propylene glycol | melanogenesis in S91 cells (in words) [1]: induced melanogenesis

Compound: CC(C)Cn1c(=O)n(C)c(=O)c2[nH]cnc21 [IBMX, 3-isobutyl-1-methylxanthine, reference compound]
Tyrosinase In Situ ([2]; 5 day treatment, 300 mM 1,2-PG, 25 mM 3,3-M-1,2-BD, 5 mM 5-NBene-2,2-DM, 0.1 mM IBMX): 25.3 dpm/hr/10^3 Cells and 26.1 dpm/hr/10^3 Cells | Tyrosinase 200 g Partic [2, 5]: 2189 dpm/hr/10^3 Cells and 1834 dpm/hr/10^3 Cells | Tyrosinase Cellular [2, 5]: 10910 dpm/hr/10^3 Cells and 11737 dpm/hr/10^3 Cells | Tyrosinase 17300 g Partic ([2]; Post 200 X g, 5 day treatment, concentrations as E130): 220 dpm/hr/10^3 Cells and 260 dpm/hr/10^3 Cells | Tyrosinase Media ([2]; Post 17300 X g, 5 day treatment, concentrations as E130): 2698 dpm/hr/10^3 Cells and 2935 dpm/hr/10^3 Cells | Tyrosinase 200 g Partic, relative to controls (in parentheses) [2, 6]: (5.86X) | Tyrosinase 17300 g Partic, relative to controls (in parentheses) [2, 6]: (2.10X) | Tyrosinase Cellular, relative to controls (in parentheses) [2, 6]: (1.11X) | Tyrosinase In Situ, relative to controls (in parentheses) [2, 6]: (1.62X) | Tyrosinase Media, relative to controls (in parentheses) [2, 6]: (1.81X) | Tyrosinase dpm/hr 10^3 Cells [3, 7]: 765 ± 53 dpm/hr/10^3 Cells | Tyrosinase dpm/hr ug Protein [3, 7]: 2161 ± 41 dpm/hr/ug Protein

Compound: CNC[C@H](O)[C@@H](O)[C@H](O)[C@H](O)CO [N-methyl-D-glucamine]
melanogenesis in S91 cells (≧2-fold increase = significant) [1, 4]: did not induce significant (≧2-fold increase) melanogenesis

Compound: C1CC2CCC1C2 [NBane, Norbornane]
induction of tyrosinase in S91 cells compared with 5-NBene-2,2-DM (FIG. 2) [3]: Lesser induction | induction of tyrosinase ([3]; 1 or 5 mM (FIG. 2)): 2 fold | induction of tyrosinase relative to untreated or ethanol (ETOH) treated control S91 cells ([3]; FIG. 2): 2 fold

Compound: OCC1(CO)CC2CCC1C2 (centres unmarked) [NBane-2,2-DM, norbornane-2,2-dimethanol]
induction of tyrosinase in S91 cells compared with 5-NBene-2,2-DM (FIG. 2) [3]: equivalent potency

Compound: CC1(C)N([O])C(c2ccccc2)=[N+]([O-])C1(C)C [PTIO, 2-phenyl-4,4,5,5-tetramethylimidazoline-1-oxyl-3-oxide, reference compound]
effect on induction of melanogenesis by 5-NBene-2,2-DM in S91 cells (in words) [3]: reduced induction of melanogenesis by 5-NBene-2,2-DM

Compound: CCSC(=N)N [S-EITU, S-ethylisothiourea, reference compound]
tyrosinase activity in S91 cells (in words) ([3]; 1000 nM S-EITU): complete ablation of tyrosinase activity

Compound: O=C1O[C@H]([C@@H](O)CO)C(O)=C1O [ascorbic acid]
melanogenesis in S91 cells (≧2-fold increase = significant) [1, 4]: did not induce significant (≧2-fold increase) melanogenesis

Fold Induction of Tyrosinase Relative to Controls ([3]; 0.5 mM (Table 19)): 3.7X | Fold Induction of Tyrosinase Relative to Controls ([3]; 1 mM (Table 19)): 2.1X | Fold Induction of Tyrosinase Relative to Controls ([3]; 2.5 mM (Table 19)): 3.7X
Compound: CC1(C)C2CCC1(C)C(O)C2 (centres unmarked) [borneol]
relative melanogenic potency in S91 cells (in words) ([3]; Table 19 data): much less activity

Fold Induction of Tyrosinase Relative to Controls ([3]; 0.5 mM (Table 19)): 1.6X | Fold Induction of Tyrosinase Relative to Controls ([3]; 1 mM (Table 19)): 3.0X | Fold Induction of Tyrosinase Relative to Controls ([3]; 2.5 mM (Table 19)): 17.1X | Fold Induction of Tyrosinase Relative to Controls ([3]; 5 mM (Table 19)): 11.6X
Compound: CC1CCC(C(C)(C)O)C(O)C1 (stereo not drawn) [cis-p-menthane-3,8-diol]

Compound: O=c1[nH]cc(CO)c(=O)[nH]1 [hydroxymethyl uracil]
melanogenesis in S91 cells (≧2-fold increase = significant) [1, 4]: did not induce significant (≧2-fold increase) melanogenesis

Compound: CCCCCCCC/C=C\CCCCCCCC(=O)O [oleic acid]
melanogenesis in S91 cells (≧2-fold increase = significant) [1, 4]: did not induce significant (≧2-fold increase) melanogenesis

Fold Induction of Tyrosinase Relative to Controls ([3]; 1 mM (Table 16)): 1.2X | Fold Induction of Tyrosinase Relative to Controls ([3]; 2.5 mM (Table 16)): 1.9X | Fold Induction of Tyrosinase Relative to Controls ([3]; 5 mM (Table 16)): 1.5X
Compound: OCC(CO)(CO)CO [pentaerylthritol]

Compound: O=C(O)C(O)C(O)C(=O)O (centres unmarked) [tartaric acid]
melanogenesis in S91 cells (≧2-fold increase = significant) [1, 4]: did not induce significant (≧2-fold increase) melanogenesis

Compound: CCCC[N+](CCCC)(CCCC)CCCC.[Cl-] [tetrabutylammonium chloride]
melanogenesis in S91 cells (≧2-fold increase = significant) [1]: did not induce significant (≧2-fold increase) melanogenesis

Compound: OC1CC2CCC1C2 (stereo not drawn) [α-NBane-ol, α-Norborneol]
induction of tyrosinase in S91 cells compared with 5-NBene-2,2-DM (FIG. 2) [3]: Lesser induction

Compound: C[C@]12CC[C@@H]3c4ccc(O)cc4CC[C@H]3[C@@H]1CC[C@@H]2O [β-Estradiol, β-estradiol, reference compound]
Concentration Required for ≧2-fold Melanin Induction in S91 Cells [1]: 500 µM

Compound: Bisindolylmaleimide [GF109203X, reference compound]
effect on induction of tyrosinase by 5-NBene-2,2-DM in S91 cells (in words) [3]: augmentation of basal and 5-NBene-2,2-DM-induced tyrosinase levels | Tyrosinase Relative to Control ([3]; 0.1 uM GF109203X): 2.6 | Tyrosinase dpm/hr/ug Protein ([3]; 0.1 uM GF109203X): 1025 dpm/hr/ug Protein | Tyrosinase Relative to Control ([3]; 1 uM GF109203X): 6.1X | Tyrosinase dpm/hr/ug Protein ([3]; 1 uM GF109203X): 2407 dpm/hr/ug Protein

Compound: Catalase [reference compound]
effect on induction of tyrosinase by 5-NBene-2,2-DM in S91 cells (in words) [3]: did not inhibit the action of 5-NBene-2,2-DM | Tyrosinase Relative to Control ([3]; 500 Units Catalase/ml): 1.9X | Tyrosinase dpm/hr/ug Protein ([3]; 500 Units Catalase/ml): 745 dpm/hr/ug Protein | Tyrosinase Relative to Control ([3]; 1000 Units Catalase/ml): 1.7X | Tyrosinase dpm/hr/ug Protein ([3]; 1000 Units Catalase/ml): 691 dpm/hr/ug Protein

Fold Induction of Tyrosinase Relative to Controls ([3]; 0.5 mM (Table 16)): 6.0X | Fold Induction of Tyrosinase Relative to Controls ([3]; 1 mM (Table 16)): 8.1X | Fold Induction of Tyrosinase Relative to Controls ([3]; 2.5 mM (Table 16)): 0.8X
Compound: methyl-5-norbornene-2,3-dimethanol

Fold Induction of Tyrosinase Relative to Controls ([3]; 1 mM (Table 15)): 1.5X | Fold Induction of Tyrosinase Relative to Controls ([3]; 2 mM (Table 15)): 3.0X
Compound: mono- & di-acetate 2,5 & 6,7-norbornanetriol
